Assay results as given in US20020169175A1, “Pharmaceutically acceptable salts of heterocyclic compounds” (DR. REDDY'S LABORATORIES LTD., priority 2001, published 2002).
Where a name gives a salt, the structure may show the parent alone.

Columns and labels:
[1] = Single dose oral pharmacokinetic studies in male Wistar rats; assay type: in vivo, rat; conditions: fasted, suspension in 0.25% sodium CMC
Experimental: Single Dose Oral Pharmacokinetic Studies
Male Wistar rats (220-250 gm) were used in the experiments. The animals were maintained under standard laboratory conditions and had free access to feed and water ad libitum. Before experimentation animals were fasted overnight (˜15 h) during which they had free access to water ad libitum.
An amount equivalent to 30 mg of drug was weighed accurately and transferred into a clean mortar and triturated to obtain a fine powder. To this 0.5 ml of 0.25% sodium carboxy methyl cellulose (sodium CMC) was added to obtain a paste. To the obtained paste remaining 2.5 ml of sodium CMC was added to make up the volume to 3 ml. Based on the animal weight appropriate volume (body weight×3) of the prepared suspension was administered through oral gavage.
After dosing, at designated time points (0.5, 1, 2, 3, 5, 8, 12 and 24 h) 200 μl of blood was collected from retro orbital plexus into 0.5 ml eppendorff tubes containing EDTA (10 μl of 200 mg/ml solution in Milli Q water). Blood was centrifuged at 12,800 rpm for 5 min and obtained plasma and stored at −20° C. till further analysis.
100μl plasma was transferred into a clean and dry centrifuge tube. To this internal standard (10 μl of 100 μg/ml) was added and extracted with 2 ml of extraction recovery solvent. The contents were vortexed for 2 min, followed by centrifugation for 10 min at 2800 rpm. Clear organic layer (2×0.75 ml) was separated and dried under nitrogen gas at 50° C. The residue was reconstituted with 150 μl of mobile phase and vortexed for 20 sec, from this 50 μl was injected onto HPLC column.
Pharmacokinetic parameters were calculated by non-compartmental model analysis. The peak plasma concentration (Cmax) and the corresponding time (Tmax)were directly obtained from the raw data. The area under the plasma concentration versus time curve up to the last quantifiable time point, AUC(0−t) was obtained by the linear and log-linear trapezoidal summation. The AUC(0−t) extrapolated to infinity (i.e., AUC(0−∞)) by adding the quotient of Clast/Kel, where Clast represents the last measurable time concentration and Kel represents the apparent terminal rate constant. Kel was calculated by the linear regression of the log-transformed concentrations of the drug in the terminal phase. The half-life of the terminal elimination phase was obtained using the relationship t½=0.693/Kel.

Swiss albino mice = experiment: Plasma triglyceride and total cholesterol lowering activity in Swiss albino mice and Guinea pigs; assay type: in vivo, mouse; conditions: oral, 6 days
Experimental: c) Plasma Triglyceride and Total Cholesterol Lowering Activity in Swiss Albino Mice and Guinea Pigs
Male Swiss albino mice (SAM) and male Guinea pigs were obtained from NIN and housed in DRF animal house. All these animals were maintained under 12 hour light and dark cycle at 25±1° C. Animals were given standard laboratory chow (NIN Hyderabad, India) and water, ad libitum. SAM of 20-25 g body weight range and Guinea pigs of 500-700 g body weight range were used (Oliver, P., Plancke, M. O., Marzin, D., Clavey, V., Sauzieres, J and Fruchart, J. C. Effects of fenofibrate, gemfibrozil and nicotinic acid on plasma lipoprotein levels in normal and hyperlipidemic mice. Atherosclerosis. 1988. 70: 107-114).
The test compounds were administered orally to Swiss albino mice at 0.3 to 30 mg/kg/day dose for 6 days. Control mice were treated with vehicle (0.25% Carboxymethylcellulose; dose 10 ml/kg). The test compounds were administered orally to Guinea pigs at 0.3 to 30 mg/kg/day dose for 6 days. Control animals were treated with vehicle (0.25% Carboxymethylcellulose; dose 5 ml/kg).
The blood samples were collected in fed state 1 hour after drug administration on 0 and 6 day of treatment. The blood was collected from the retro-orbital sinus through heparinised capillary in EDTA containing tubes. After centrifugation, plasma sample was separated for triglyceride and total cholesterol (Wieland, O. Methods of Enzymatic analysis. Bergermeyer, H. O., Ed., 1963. 211-214; Trinder, P. Ann. Clin. Biochem. 1969. 6: 24-27). Measurement of plasma triglyceride, total cholesterol and HDL were done using commercial kits (Dr. Reddy's Diagnostic Division, Hyderabad, India).
1. Percent reduction in Blood sugar/triglycerides/total cholesterol were calculated according to the formula: [formula]

hPPARγ1 = target: T1, hPPARγ1 (Homo sapiens, UniProt P37231); experiment: Determination of hPPARγ activity (GAL4 fusion luciferase reporter in transfected HEK-293 cells); assay type: cell-based; conditions: compound concentration 1 μM
T1 construct: expressed in transfected cells; host or cells: HEK-293
T1 sequence (P37231 238-503 limits assumed): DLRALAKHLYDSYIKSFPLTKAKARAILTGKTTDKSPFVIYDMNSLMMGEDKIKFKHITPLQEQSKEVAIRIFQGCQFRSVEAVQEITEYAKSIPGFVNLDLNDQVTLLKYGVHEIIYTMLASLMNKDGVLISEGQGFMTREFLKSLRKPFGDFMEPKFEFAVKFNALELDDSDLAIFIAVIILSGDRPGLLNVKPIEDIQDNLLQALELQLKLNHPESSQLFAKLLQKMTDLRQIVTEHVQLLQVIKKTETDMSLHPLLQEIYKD
Experimental: b) Determination of hPPARγ Activity
Ligand binding domain of hPPARγ1 was fused to DNA binding domain of Yeast transcription factor GAL4 in eucaryotic expression vector. Using lipofectamine (Gibco BRL, USA) as transfecting reagent HEK-293 cells were transfected with this plasmid and a reporter plasmid harboring the luciferase gene driven by a GAL4 specific promoter. Compound was added at 1 μM concentration after 48 hrs of transfection and incubated overnight. Luciferase activity as a function of drug binding/activation capacity of PPARγ1 was measured using Packard Luclite kit (Packard, USA) in Packard Top Count (Ivan Sadowski, Brendan Bell, Peter Broag and Melvyn Hollis. Gene. 1992. 118: 137-141; Guide to Eukaryotic Transfections with Cationic Lipid Reagents. Life Technologies, GIBCO BRL, USA).

hPPARα = target: T2, hPPARα (Homo sapiens, UniProt Q07869); experiment: Determination of hPPARα activity (GAL4 fusion luciferase reporter in transfected HEK-293 cells); assay type: cell-based; conditions: compound concentration 50 μM
T2 construct: expressed in transfected cells; host or cells: HEK-293
T2 sequence (Q07869 239-466 limits assumed): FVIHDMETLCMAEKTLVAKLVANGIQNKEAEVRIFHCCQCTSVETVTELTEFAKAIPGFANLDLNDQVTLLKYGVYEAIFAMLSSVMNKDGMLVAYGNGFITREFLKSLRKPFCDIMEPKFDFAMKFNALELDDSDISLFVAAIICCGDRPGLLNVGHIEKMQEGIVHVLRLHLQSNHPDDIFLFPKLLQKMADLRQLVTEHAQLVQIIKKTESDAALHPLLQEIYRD
Experimental: a) Determination of hPPARα Activity
Ligand binding domain of hPPARα was fused to DNA binding domain of Yeast transcription factor GAL4 in eucaryotic expression vector. Using superfect (Qiagen, Germany) as transfecting reagent HEK-293 cells were transfected with this plasmid and a reporter plasmid harboring the luciferase gene driven by a GAL4 specific promoter. Compound was added at different concentrations after 42 hrs of transfection and incubated overnight. Luciferase activity as a function of compound binding/activation capacity of PPARα was measured using Packard Luclite kit (Packard, USA) in Top Count (Ivan Sadowski, Brendan Bell, Peter Broag and Melvyn Hollis. Gene. 1992. 118: 137-141; Superfect Transfection Reagent Handbook. February 1997. Qiagen, Germany).

| SMILES | Triglyceride Lowering (%) (Swiss albino mice; dose 3 mg/kg) | PPARγ (hPPARγ1) | PPARα (hPPARα) | also measured |
| --- | --- | --- | --- | --- |
| CCCc1nn(C)c2c(=O)n(CCOc3ccc(CC(OCC)C(=O)[O-])cc3)c(CC)nc12.CCCc1nn(C)c2c(=O)n(CCOc3ccc(CC(OCC)C(=O)[O-])cc3)c(CC)nc12.[Mg+2] (single isomer, unassigned; (-)) [Example 31, (−)-3-[4-[2-(1-Methyl-5-ethyl-7-oxo-3-propyl-6,7-dihydro-1H-pyrazolo[4,3-d]pyrimidin-6-yl)ethoxy]phenyl]-2-ethoxypropionic acid magnesium salt] | 84% | – | – | AUC (0-∞) [1]: 65930 ng·h/mL; AUC(0-t) [1]: 64700 ng·h/mL; Cmax [1]: 19150 ng/mL; Kel [1]: 0.34 h⁻¹; Tmax [1]: 2.75 h; t½ [1]: 2.24 h |
| CCO[C@@H](Cc1ccc(OCCn2c(CC)nc3ccccc3c2=O)cc1)C(=O)O [Example 1, (−)-3-[4-[2-(2-Ethyl-4-oxo-3,4-dihydroquinazolin-3-yl)ethoxy]phenyl]-2-ethoxypropanoic acid phenyl glycinol salt] | 87% | – | – | – |
| CCO[C@@H](Cc1ccc(OCCn2c(CC)nc3ccccc3c2=O)cc1)C(=O)O [Example 3, (−)-3-[4-[2-(2-Ethyl-4-oxo-3,4-dihydroquinazolin-3-yl)ethoxy]phenyl]-2-ethoxypropanoic acid dicyclohexylamine salt] | 81% | – | – | – |
| CCO[C@@H](Cc1ccc(OCCn2c(N=[N+]=[N-])nc3ccccc3c2=O)cc1)C(=O)O [Example 12, (−)-3-[4-[2-(2-Azido-4-oxo-3,4-dihydroquinazolin-3-yl)ethoxy]phenyl]-2-ethoxypropanoic acid magnesium salt] | – | – | – | Triglyceride Lowering (%) (Swiss albino mice; dose 0.3 mg/kg): 37% |
| CCCc1nn(C)c2c(=O)n(CCOc3ccc(CC(OCC)C(=O)[O-])cc3)c(C)nc12.CCCc1nn(C)c2c(=O)n(CCOc3ccc(CC(OCC)C(=O)[O-])cc3)c(C)nc12.[Mg+2] (stereo not drawn) [Example 16, 3-[4-[2-(1,5-Dimethyl-7-oxo-3-propyl-6,7-dihydro-1H-pyrazolo[4,3-d]pyrimidin-6-yl)ethoxy]phenyl]-2-ethoxypropionic acid magnesium salt] | – | 13.5 | 3.4 | – |
| CCCc1nn(C)c2c(=O)n(CCOc3ccc(C[C@H](OCC)C(=O)[O-])cc3)c(C)nc12.[Na+] [Example 20, 3-[4-[2-(1,5-Dimethyl-7-oxo-3-propyl-6,7-dihydro-1H-pyrazolo[4,3-d]pyrimidin-6-yl)ethoxy]phenyl]-2-ethoxypropionic acid sodium salt] | – | 13.0 | 3.5 | – |
| CCCc1nn(C)c2c(=O)n(CCOc3ccc(C[C@H](OCC)C(=O)O)cc3)c(C)nc12 [Example 23, 3-[4-[2-(1,5-Dimethyl-7-oxo-3-propyl-6,7-dihydro-1H-pyrazolo[4,3-d]pyrimidin-6-yl)ethoxy]phenyl]-2-ethoxypropionic acid S-(+)-phenylglycinol salt] | – | 11.5 | 3.4 | – |
| CCCc1nn(C)c2c(=O)n(CCOc3ccc(C[C@H](OCC)C(=O)O)cc3)c(CC)nc12 [Example 36, (−)-3-[4-[2-(1-Methyl-5-ethyl-7-oxo-3-propyl-6,7-dihydro-1H-pyrazolo[4,3-d]pyrimidin-6-yl)ethoxy]phenyl]-2-ethoxypropionic acid arginine salt] | – | 11.4 | – | – |
| CCCc1nn(C)c2c(=O)n(CCOc3ccc(C[C@H](OCC)C(=O)O)cc3)c(CC)nc12 [Example 38, (−)-3-[4-[2-(1-Methyl-5-ethyl-7-oxo-3-propyl-6,7-dihydro-1H-pyrazolo[4,3-d]pyrimidin-6-yl)ethoxy]phenyl]-2-ethoxypropionic acid S-(+)-phenylglycinol salt] | – | 12.0 | 3.3 | – |
| CCCc1nn(C)c2c(=O)n(CCOc3ccc(C[C@H](OCC)C(=O)O)cc3)c(CC)nc12 [Example 41, (−)-3-[4-[2-(1-Methyl-5-ethyl-7-oxo-3-propyl-6,7-dihydro-1H-pyrazolo[4,3-d]pyrimidin-6-yl)ethoxy]phenyl]-2-ethoxypropionic acid dicyclohexylamine salt] | – | 13.0 | 3.1 | – |
| CCCc1nn(C)c2c(=O)n(CCOc3ccc(C[C@H](OCC)C(=O)O)cc3)c(CC)nc12 [Example 44, (−)-3-[4-[2-(1-Methyl-5-ethyl-7-oxo-3-propyl-6,7-dihydro-1H-pyrazolo[4,3-d]pyrimidin-6-yl)ethoxy]phenyl]-2-ethoxypropionic acid metformin salt] | 80% | – | 2.5 | – |
| CCCc1nn(C)c2c(=O)n(CCOc3ccc(C[C@H](OCC)C(=O)O)cc3)c(CC)nc12 [Example 45, (−)-3-[4-[2-(1-Methyl-5-ethyl-7-oxo-3-propyl-6,7-dihydro-1H-pyrazolo[4,3-d]pyrimidin-6-yl)ethoxy]phenyl]-2-ethoxypropionic acid Lysine salt] | 81% | – | – | AUC (0-∞) [1]: 101290 ng·h/mL; AUC(0-t) [1]: 99330 ng·h/mL; Cmax [1]: 24220 ng/mL; Kel [1]: 0.42 h⁻¹; Tmax [1]: 2.38 h; t½ [1]: 1.72 h |
